Consider 34 compounds from the supplement of paper PMC5412046.

Assay [1] concerns SB.mhdgc-1. Briefly: area under the dose-response curve of % viability (trapezoidal, 11 doses) (% viability x log10 concentration); higher = less cytotoxic. Conditions: SB.mhdgc-1 (hereditary c.1380delA CDH1 gastric cancer). An outline of the steps:
(§1)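 Each entry is viability relative to DMSO, given either at the highest concentration tested or as a trapezoidal area under the curve. Gastric cancer cells from hereditary or sporadic patients (500 cells in 5 μL medium per 1536 well) received compound in DMSO at 11 threefold-diluted concentrations, 23 nL by pintool. Luminescence from CellTiter-Glo was read after 48 h.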

Assay [2] concerns SB.msgc-1. Described as above. Conditions: SB.msgc-1 (sporadic gastric cancer). An outline of the steps: as §1
In assay [3] the test system is SB.mhdgc-1. Briefly: viability at highest tested concentration (MAXR) relative to DMSO; higher = less cytotoxic. Conditions: SB.mhdgc-1 (hereditary c.1380delA CDH1 gastric cancer). An outline of the steps: as §1
For assay [4], the system named is SB.msgc-1. The assay is described as above. The following applies: SB.msgc-1 (sporadic gastric cancer). The gist of the method:
as §1

Structures can show the parent of a compound that is named as a salt.

What is called viability is a read-out of living cells in per cent, often relative to untreated cells. For `CC[C@@]1([C@@H]2O[C@@H]([C@H]3O[C@@](O)(CO)[C@H](C)C[C@@H]3C)C[C@@H]2C)CC[C@H]([C@]2(C)CC[C@]3(C[C@H](O)[C@@H](C)[C@@H]([C@@H](C)[C@@H](OC)[C@H](C)C(=O)[O-])O3)O2)O1` [Monensin sodium salt] (top concentration 23.0415 µM), the results for the “area under the dose-response curve” value in assay [1] and in assay [2] were 304 and 346, respectively. In addition, the viability is 26.8% in assay [3] and 20.7% in assay [4].
Turning to `Oc1ccc(OCc2ccccc2)cc1` [Monobenzone] (top concentration 46.0829 µM), the “area under the dose-response curve” value in assay [1] was found to be 588; in assay [2] it was 568. Further, the viability in assay [3] was 83.9%; in assay [4], 96.2%.
In the case of `OC1=CC(=C(C=C1)\C2=C(O)\C(=O)C3=C(O2)C=C(O)C=C3O)O` [Morin hydrate] (top concentration 46.0829 µM), the “area under the dose-response curve” value in assay [1] is 530; in assay [2], 516. Besides, the viability in assay [3] amounted to 132%; in assay [4] it was 105%.
Consider `N=C(N)NC(=N)N1CCOCC1` [Moroxydine] (top concentration 46.0829 µM), for which the “area under the dose-response curve” value was determined as 506 in assay [1] and 479 in assay [2]. Also, the viability in assay [3] stood at 52.5%; in assay [4] it was 44.6%.
`CCOc1cc(N)c(Cl)cc1C(=O)NCC1CN(Cc2ccc(F)cc2)CCO1` (stereo unspecified) [Mosapride citrate] (top concentration 46.0829 µM): the results for the “area under the dose-response curve” value in assay [1] and in assay [2] were 572 and 514, respectively. For the same compound, the viability in assay [3] amounted to 147%; in assay [4], 89.2%.
Turning to `CC1(C)CNc2cc(NC(=O)c3cccnc3NCc3ccncc3)ccc21` [Motesanib] (top concentration 46.0829 µM), the “area under the dose-response curve” value in assay [1] stood at 394; in assay [2], 463. The viability in assay [3] stood at 49.8%; in assay [4], 68.8%.
For `COc1c(N2C[C@@H]3CCCN[C@@H]3C2)c(F)cc2c(=O)c(C(=O)O)cn(C3CC3)c12.Cl.O` [Moxifloxacin hydrochloride] (top concentration 46.0829 µM), in that order: 560, 507, 92.9% and 67.6%.
On to `COC1=NC(=NC(=C1N\C2=N\CCN2)Cl)C` [Moxonidine hydrochloride hydrate] (top concentration 46.0829 µM), for which the figures for the “area under the dose-response curve” value in assay [1] and in assay [2] were 430 and 489, respectively. Further, the viability in assay [3] turned out to be 77.7%; in assay [4], 122%.
Regarding `FC(F)(F)c1ccc(/C=C/c2nc(COc3ccc(CCCCn4ccnn4)cc3)co2)cc1` [Mubritinib] (top concentration 46.0829 µM), the “area under the dose-response curve” value was 368 in assay [1] and 241 in assay [2]. For the same compound, the viability in assay [3] is 48.8%; in assay [4] it was 28.4%.
Regarding `COc1c(C)c2c(c(O)c1C/C=C(\C)CCC(=O)OCCN1CCOCC1)C(=O)OC2` [Mycophenolate mofetil] (top concentration 46.0829 µM), the “area under the dose-response curve” value in assay [1] came to 571; in assay [2], 510. Moreover, the viability in assay [3] amounted to 88.3%; in assay [4] it was 55.1%.
For `COc1c(C)c2c(c(O)c1C/C=C(\C)CCC(=O)O)C(=O)OC2` [Mycophenolic acid] (top concentration 46.0829 µM), the results for the “area under the dose-response curve” value in assay [1] and in assay [2] were 502 and 519, respectively. Besides, the viability in assay [3] came out at 66%; in assay [4], 73.8%.
As to `OC1=CC2=C(C(=C1)O)C(=O)\C(=C(/O2)C3=CC(=C(O)C(=C3)O)O)O` [Myricetin] (top concentration 46.0829 µM), the “area under the dose-response curve” value in assay [1] came to 510; in assay [2], 484. Further, the viability is 108% in assay [3] and 100% in assay [4].
Regarding `COc1ccc(Nc2cc(-c3cnc(N)nc3)nc(N3CCOCC3)n2)cn1` [NIBR-17] (top concentration 46.0829 µM), the “area under the dose-response curve” value came out at 378 in assay [1] and 421 in assay [2]. Moreover, the results for the viability in assay [3] and in assay [4] were 37% and 37.7%, respectively.
Take `c1ccc2c(CN3CCNCC3)cccc2c1` [NMP] (top concentration 46.0829 µM): the “area under the dose-response curve” value came out at 520 in assay [1] and 491 in assay [2]. Further, the viability in assay [3] was 7.38%; in assay [4] it was 89.5%.
With `COc1cccc([C@@H](C)NCCCc2ccccc2Cl)c1` [NPS R568] (top concentration 46.0829 µM), the entries for the “area under the dose-response curve” value in assay [1] and in assay [2] were 525 and 320, respectively. The viability in assay [3] came out at 74.4%; in assay [4], 22%.
`Nc1nc(N)c(N=O)c(OCC2CCCCC2)n1` [NU-6027] (top concentration 46.0829 µM): the “area under the dose-response curve” value was 432 in assay [1] and 505 in assay [2]. For the same compound, the viability amounted to 53.7% in assay [3] and 69.3% in assay [4].
`N[S+](=O)([O-])c1ccc(Nc2nc(OCC3CCCCC3)c3[nH]cnc3n2)cc1` [NU-6102] (top concentration 46.0829 µM): the “area under the dose-response curve” value in assay [1] stood at 496; in assay [2] it was 537. For the same compound, the viability in assay [3] is 42.7%; in assay [4], 69.2%.
Consider `O=C1\C=C(OC2=C(C=CC=C12)C3=CC=CC4=C3SC5=C4C=CC=C5)\N6CCOCC6` [NU-7441] (top concentration 46.0829 µM), for which the “area under the dose-response curve” value was found to be 484 in assay [1] and 443 in assay [2]. Also, the figures for the viability in assay [3] and in assay [4] were 1.01% and 9.96%, respectively.
Consider `CNCC(O)C(O)C(O)C(O)CO.O=C(O)c1ccc(-c2cc3cccnc3c(-c3ccc4nonc4c3)n2)cc1` [NVP-ABE171] (top concentration 46.0829 µM), for which the figures for the “area under the dose-response curve” value in assay [1] and in assay [2] were 567 and 511, respectively. Besides, the viability amounted to 7.16% in assay [3] and 20.2% in assay [4].
For `Nc1ncnc2c1c(-c1cccc(OCc3ccccc3)c1)cn2C1CC(CN2CCC2)C1` (stereo unspecified) [NVP-AEW541] (top concentration 46.0829 µM), in that order: 482, 484, 44.9% and 55.9%.
Regarding `CCNC(=O)c1noc(-c2cc(C(C)C)c(O)cc2O)c1-c1ccc(CN2CCOCC2)cc1` [NVP-AUY922] (top concentration 46.0829 µM), the “area under the dose-response curve” value came to 260 in assay [1] and 362 in assay [2]. In addition, the viability was determined as 35% in assay [3] and 49.2% in assay [4].
`COc1ccc(-c2ccc3ncc4c(c3c2)n(-c2ccc(N3CCNCC3)c(C(F)(F)F)c2)c(=O)n4C)cn1` [NVP-BGT226] (top concentration 46.0829 µM): the “area under the dose-response curve” value in assay [1] was found to be 195; in assay [2] it was 305. Further, the values for the viability in assay [3] and in assay [4] were 1.45% and 0.962%, respectively.
Regarding `Cc1ccc(C(=O)Nc2cccc(C(F)(F)F)c2)cc1Nc1nc(-c2cccnc2)nc2c1cnn2C` [NVP-BHG712] (top concentration 46.0829 µM), the entries for the “area under the dose-response curve” value in assay [1] and in assay [2] were 404 and 463, respectively. The viability in assay [3] turned out to be 1.3%; in assay [4], 8.83%.
On to `Fc1cc(-c2cccc3ncc(-c4cnn(C5CCNCC5)c4)nc23)cc(F)c1CN1CCOCC1` [NVP-BSK805] (top concentration 46.0829 µM), for which the “area under the dose-response curve” value in assay [1] stood at 502; in assay [2], 500. Also, the viability in assay [3] came out at 3.9%; in assay [4], 38.6%.
As to `Cn1cc(-c2ccc3ncc(Cc4ccc5ncccc5c4)n3n2)cn1` [NVP-BVU-972] (top concentration 46.0829 µM), the “area under the dose-response curve” value amounted to 374 in assay [1] and 506 in assay [2]. Further, the viability turned out to be 49.7% in assay [3] and 98.9% in assay [4].
On to `Cc1c(C(=O)Nc2ccc(N3C[C@@H](C)O[C@@H](C)C3)nc2)cccc1-c1ccc(OC(F)(F)F)cc1` [NVP-LDE-225] (top concentration 46.0829 µM), for which the “area under the dose-response curve” value in assay [1] was 479; in assay [2] it was 488. In addition, the figures for the viability in assay [3] and in assay [4] were 43.9% and 40.3%, respectively.
Turning to `CNC(=O)c1ccccc1Nc1nc(Nc2ccc(N3CCOCC3)cc2OC)ncc1Cl` [NVP-TAE226] (top concentration 46.0829 µM), the “area under the dose-response curve” value in assay [1] came to 392; in assay [2] it was 448. The viability was 21.2% in assay [3] and 39.1% in assay [4].
For `Oc1nc(-c2ccc(C(F)(F)F)cc2)nc2c1CSCC2` [NVP-XAV-939] (top concentration 46.0829 µM), the “area under the dose-response curve” value in assay [1] turned out to be 545; in assay [2] it was 517. For the same compound, the viability was found to be 60.6% in assay [3] and 66.7% in assay [4].
Take `N=C(N)Nc1ccc(C(=O)Oc2ccc3cc(C(=N)N)ccc3c2)cc1` [Nafamostat mesilate] (top concentration 46.0829 µM): the “area under the dose-response curve” value amounted to 467 in assay [1] and 518 in assay [2]. For the same compound, the viability was found to be 93.1% in assay [3] and 94.3% in assay [4].
Turning to `COc1ccccc1N1CCN(CC(O)COc2cccc3ccccc23)CC1` (stereo unspecified) [Naftopidil] (top concentration 46.0829 µM), the “area under the dose-response curve” value was 536 in assay [1] and 572 in assay [2]. Further, the figures for the viability in assay [3] and in assay [4] were 87% and 102%, respectively.
On to `CCN1\C=C(\C(O)=O)C(=O)C2=CC=C(C)N=C12` [Nalidixic acid] (top concentration 46.0829 µM), for which the “area under the dose-response curve” value in assay [1] is 437; in assay [2], 443. The figures for the viability in assay [3] and in assay [4] were 76.8% and 95.8%, respectively.
Consider `O=C1CC[C@@]2(O)[C@H]3Cc4ccc(O)c5c4[C@@]2(CCN3CC2CC2)[C@H]1O5` [Naltrexone hydrochloride] (top concentration 46.0829 µM), for which the “area under the dose-response curve” value in assay [1] worked out at 607; in assay [2], 605. In addition, the viability in assay [3] came out at 98.3%; in assay [4] it was 116%.
With `CO[C@H]1CCC(O[C@H]2C[C@H]([C@]3(C)CC[C@]4(C[C@H](O)[C@@H](C)[C@@H]([C@@H](C)/C=C(\C)C(=O)[C@H](C)C[C@H](C)C(=O)[O][Na])O4)O3)O[C@]3(O[C@@H]([C@H]4O[C@@](O)(CO)[C@H](C)C[C@@H]4C)C[C@@H]3C)[C@@H]2C)O[C@@H]1C` (stereo partly specified) [Nanchangmycin] (top concentration 46.0829 µM), the “area under the dose-response curve” value in assay [1] is 303; in assay [2], 289. In addition, the viability turned out to be 2.69% in assay [3] and 1.92% in assay [4].
For `C[C@]12CC[C@H]3[C@@H](CCC4=CC(=O)CC[C@@H]43)[C@@H]1CC[C@@H]2OC(=O)CCc1ccccc1` [Nandrolone phenylpropionate] (top concentration 46.0829 µM), in that order: 458, 535, 41.9% and 93.9%.
